The values below come from ChEMBL document CHEMBL1133869, “Synthesis and biological activity of L-tyrosine-based PPARgamma agonists with reduced molecular weight” (Bioorg Med Chem Lett, 2001).

Assay [1] concerns the target T1, Peroxisome proliferator-activated receptor delta (Homo sapiens, UniProt Q03181).
T1 sequence (Q03181 whole entry): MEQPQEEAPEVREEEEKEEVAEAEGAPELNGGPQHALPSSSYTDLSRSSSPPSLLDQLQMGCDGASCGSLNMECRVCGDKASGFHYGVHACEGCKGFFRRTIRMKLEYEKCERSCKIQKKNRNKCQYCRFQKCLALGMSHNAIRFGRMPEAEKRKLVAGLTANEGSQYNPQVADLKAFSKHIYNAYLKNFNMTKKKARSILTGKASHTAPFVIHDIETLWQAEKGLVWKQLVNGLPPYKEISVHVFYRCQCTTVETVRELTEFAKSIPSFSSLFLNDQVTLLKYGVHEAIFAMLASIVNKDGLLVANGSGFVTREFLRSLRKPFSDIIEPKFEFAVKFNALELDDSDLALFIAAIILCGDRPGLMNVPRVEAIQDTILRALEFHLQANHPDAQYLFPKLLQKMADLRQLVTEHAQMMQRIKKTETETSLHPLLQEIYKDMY
Nature of the assay: Concentration that gave 50% of maximal reporter activity against human Peroxisome proliferator activated receptor delta Gal4 chimeric in transiently transfected CV-1 cells by functional assay. The class given is cell-based.

Assay [2] concerns Rattus norvegicus. Nature of the assay: In vivo efficacy expressed as reduction in fasting plasma glucose at a dose of 10 mg/kg, oral, for 14 days in male rats. The class given is functional.
Assay [3] has as its system Rattus norvegicus. The experiment in a line: In vivo efficacy expressed as reduction in fasting serum triglycerides at a dose of 10 mg/kg, oral, for 14 days in male rats. The class given is functional.
For assay [4], the target named is T1, Peroxisome proliferator-activated receptor delta. The experiment in a line: Binding affinity to bind to human Peroxisome proliferator activated receptor delta using scintillation proximity assay. On the technique in general: SPA uses beads or plates that emit light when radiolabelled molecules are held near them.
Assay [5] has as its system Rattus norvegicus. The experiment in a line: In vivo efficacy expressed as increase in HDL-cholesterol after at a dose of 10 mg/kg, oral, for 14 days in male rats. The class given is functional.
Assay [6] has as its target T2, Peroxisome proliferator-activated receptor gamma (Homo sapiens, UniProt P37231).
T2 sequence (P37231 whole entry): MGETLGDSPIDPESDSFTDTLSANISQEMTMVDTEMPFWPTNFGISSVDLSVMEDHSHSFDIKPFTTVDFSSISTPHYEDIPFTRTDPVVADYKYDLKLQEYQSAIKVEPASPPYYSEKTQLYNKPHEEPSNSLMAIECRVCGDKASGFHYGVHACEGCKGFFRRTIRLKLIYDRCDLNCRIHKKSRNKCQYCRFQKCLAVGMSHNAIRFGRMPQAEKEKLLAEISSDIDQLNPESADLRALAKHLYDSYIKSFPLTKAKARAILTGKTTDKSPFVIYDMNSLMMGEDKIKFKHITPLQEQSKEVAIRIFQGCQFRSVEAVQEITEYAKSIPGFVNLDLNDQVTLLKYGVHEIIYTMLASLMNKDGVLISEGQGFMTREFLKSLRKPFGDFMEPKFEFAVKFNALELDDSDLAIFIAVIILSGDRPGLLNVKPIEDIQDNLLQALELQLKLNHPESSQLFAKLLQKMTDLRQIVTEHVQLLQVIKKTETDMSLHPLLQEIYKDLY
Description: Binding affinity to human Peroxisome proliferator activated receptor gamma using scintillation proximity assay

For assay [7], the target named is T2, Peroxisome proliferator-activated receptor gamma. The source holds these as a separate data set.
Description: Maximal reporter activity against human Peroxisome proliferator activated receptor gamma Gal4 chimeric in transiently transfected CV-1 cells by functional assay.
Assay [8] addresses T3, Peroxisome proliferator-activated receptor alpha (Homo sapiens, UniProt Q07869).
T3 sequence (Q07869 whole entry): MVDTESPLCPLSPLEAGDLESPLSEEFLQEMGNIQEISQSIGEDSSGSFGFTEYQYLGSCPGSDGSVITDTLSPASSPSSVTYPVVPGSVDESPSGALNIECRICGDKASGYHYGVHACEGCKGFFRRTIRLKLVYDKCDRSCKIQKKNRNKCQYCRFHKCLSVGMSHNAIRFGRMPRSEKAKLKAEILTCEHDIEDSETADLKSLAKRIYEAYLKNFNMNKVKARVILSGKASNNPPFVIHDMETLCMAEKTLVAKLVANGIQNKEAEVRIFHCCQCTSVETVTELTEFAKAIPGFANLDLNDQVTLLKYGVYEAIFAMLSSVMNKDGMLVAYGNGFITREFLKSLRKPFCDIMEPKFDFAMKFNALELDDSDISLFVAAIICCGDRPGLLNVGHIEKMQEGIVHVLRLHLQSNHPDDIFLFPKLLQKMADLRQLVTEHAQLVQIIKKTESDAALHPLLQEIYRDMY
Nature of the assay: Maximal reporter activity against human Peroxisome proliferator activated receptor alpha Gal4 chimeric in transiently transfected CV-1 cells by functional assay. The class given is cell-based.

As a reminder, the EC50 is the concentration at which the effect is half-maximal. High values mean weaker potency, low ones greater potency. The term Ki denotes a measure of affinity in units of concentration, obtained from inhibition or displacement. The molecule `Cc1oc(-c2ccccc2)nc1CCOc1ccc(C[C@@H](C(=O)O)n2cccc2)cc1` gave an EC50 in assay [1] of 3800 nM. The Reduction in assay [2] turned out to be 40%; in assay [3], 24%. Moreover, in assay [4], the affinity corresponds to a Ki of 2500 nM. The same molecule came in with an Increase in assay [5] of 31%.
The molecule `Cc1oc(-c2ccccc2)nc1CCOc1ccc(C[C@@H](C(=O)O)N2CCCC2)cc1` returned a Ki in assay [6] of 360 nM. In assay [7], this molecule gave an EC50 of 390 nM.
Molecule `Cc1oc(-c2ccccc2)nc1CCOc1ccc(C[C@H](Nc2ncccn2)C(=O)O)cc1` yielded a Ki in assay [6] of 280 nM. Besides, in assay [7], the concentration giving a half-maximal response (EC50) is 590 nM.
With `Cc1oc(-c2ccccc2)nc1CCOc1ccc(C[C@@H](C(=O)O)N2CCOCC2)cc1`, in assay [6], the Ki came to 158 nM. Further, the values for the EC50 in assay [8] and in assay [7] were 6900 nM and 24 nM, respectively.
Molecule `Cc1oc(-c2ccccc2)nc1CCOc1ccc(C[C@H](Nc2ccccc2C(=O)c2ccccc2)C(=O)O)cc1` [FARGLITAZAR] showed a Ki in assay [4] of 1200 nM.
As to `CC(=O)N[C@@H](Cc1ccc(OCCc2nc(-c3ccccc3)oc2C)cc1)C(=O)O`, the affinity in assay [6], expressed as Ki, was 2600 nM. Besides, the response in assay [7] was half-maximal at 3500 nM (EC50).
In assay [6], `CN[C@@H](Cc1ccc(OCCc2nc(-c3ccccc3)oc2C)cc1)C(=O)O` came in with a Ki of 2100 nM. Further, in assay [7], a half-maximal effect (EC50) was put at 5000 nM.
As for `Cc1oc(-c2ccccc2)nc1CCOc1ccc(C[C@H](NS(C)(=O)=O)C(=O)O)cc1`, in assay [6], the Ki is 620 nM. Moreover, the response in assay [7] was half-maximal at 2600 nM (EC50).
Take `Cc1oc(-c2ccccc2)nc1CCOc1ccc(C[C@@H](C(=O)O)N(C)C)cc1`: in assay [6], the Ki was 850 nM. The molecule also came in with an EC50 in assay [7] of 410 nM.
Take `Cc1oc(-c2ccccc2)nc1CCOc1ccc(C[C@@H](C(=O)O)N2CCCCC2)cc1`: the affinity in assay [6] corresponds to a Ki of 480 nM. The molecule also returned an EC50 in assay [7] of 138 nM.
In turn, `CCCN[C@@H](Cc1ccc(OCCc2nc(-c3ccccc3)oc2C)cc1)C(=O)O` registered a Ki in assay [6] of 52 nM. The molecule further gave a half-maximal effective concentration (EC50) in assay [7] of 240 nM.
With `Cc1oc(-c2ccccc2)nc1CCOc1ccc(C[C@@H](C(=O)O)n2c(C)ccc2C)cc1`, the Ki in assay [6] is 980 nM. In addition, it took 710 nM to reach a half-maximal effect in assay [7] (EC50).
